{"source": "paper PMC6688371", "about": "“Effect of the inhaled PDE4 inhibitor CHF6001 on biomarkers of inflammation in COPD” (Respiratory Research, 2019)", "key": {"[1]": {"experiment": "Sputum concentration of CHF6001", "type": "in vivo, human", "details": "for concentration at 2 h: sputum, mean of all values measured on Days 20, 26 and 32, geometric mean (%CV), read-out: Sputum concentration at 2 h post-dose", "method": "The mean changes from baseline to Day 32 for lung function, CAT and TDI were analysed using similar methodology to sputum biomarkers, but were not log-transformed. […] The sputum concentration of CHF6001 was also evaluated at 2 h post-dose, using the mean of all values measured on Days 20, 26 and 32. Pharmacokinetic variables were summarised using geometric means and coefficients of variation, except for Tmax,ss, which is presented as median (range). […]\nOnly one of the sputum samples induced at 2 h post-dose on Days 20, 26 or 32 was used to evaluate CHF6001 concentration, with the evaluation performed only if a minimum of 300 mg of residual sputum remained. Approximately 30 mg of sputum plug was transferred to a polypropylene cryotube, and was shipped in an upright position at –80C to a central laboratory for analysis. The concentration of CHF6001 was evaluated using a LC-MS/MS method following solid phase extraction. Validation procedures were the same as those listed above for biomarkers. […]\nover the calibration range of 30 to 20,000 ng/mL. The precision and accuracy of the method […]\n30 ng/mL and within 15% at all other concentrations. No significant matrix effects were […]\ntemperature (nominally +22C), after storage for 93 days in a freezer set at –80C and after four freeze-thaw cycles at nominally –80C / +22C. The method was considered to be suitable for measuring concentrations of CHF6001 in human sputum samples from […]"}, "[2]": {"tested_on": "markers of inflammation in sputum", "experiment": "Markers of inflammation in induced sputum", "type": "in vivo, human", "details": "geometric mean (%CV); for α-2-macroglobulin in sputum, post-baseline: mean of Days 20, 26 and 32", "method": "Induced sputum was collected pre-dose on Day 1 of each treatment period (for the first treatment period, the sample could be collected up to 10 days prior to Day 1), and 2 h post-dose on Days 20, 26 and 32 (see the Additional file 1 for further detail on sputum and blood analysis methods). Blood samples were taken pre-dose on Day 1, and pre-dose and at 30 min, and 1, 1.5, 2, 3, 4, 6, 8 and 12 h post-dose on Day 32. Other pre-dose assessments on Days 1 and 32 were spirometry (forced expiratory volume in 1 s [FEV1] and forced vital capacity [FVC]), forced oscillometry, and COPD Assessment Test (CAT), with Baseline Dyspnea Index recorded on Day 1 and Transition Dyspnea Index (TDI) on Day 32. Central and peripheral airways mechanics were assessed using forced oscillometry, with the following values determined: inspiratory and expiratory resistance (at 5 and 19 Hz), inspiratory and expiratory reactance, tidal expiratory flow limitation and the percentage of flow limited breaths.\nA patient had to have a minimum of one acceptable sputum sample on Day 20, 26 or 32 to be included in the sputum biomarker evaluation for that treatment period, with the available cell count and biomarker data averaged for each patient. The mean change from baseline (pre-dose on Day 1 of each treatment period) was then compared between treatments using an analysis of covariance (ANCOVA) that included treatment, patient and period as fixed effects, and baseline values as covariate. The mean change from baseline to Day 32 for biomarkers in blood were analysed using the same model as for sputum data. All data were log-transformed before analysis, and the results are presented as ratio of geometric means.\nEffect of CHF6001 on inflammatory biomarkers – Additional file 1 […]\nAnalysis of biomarkers and CHF6001 concentration in sputum\nSputum samples were collected by sputum induction, with patients breathing in nebuli sed hypertonic saline at increasing concentrations (3%, then 4% and finally 5%) while wearing a nose clip. Sputum plugs were isolated, processed by centrifugation and analysed to determine inflammatory cell counts (with total cell counts performed by each s ite’s local laboratory and differential counts at a central laboratory), as follows.\nAll solid or dense-looking material was collected from the clear salivary fluid into a stainless steel Petri dish lid. Sputum plugs were then gathered and condensed into one mass. After cleaning the Petri dish, cold Dulbecco's Phosphate -Buffered Saline equal to eight times the weight of the sputum plug was added, then dispersed , mixed and vortexed for 15 sec, before gently agitating on a rolling mixer or rocker for 15 min at room temperature. The resulting mixture was centrifuged at 790 g for 10 min at 4C. A volume of the supernatant equal to four times the weight of the sputum plug was removed and again centrifuged at 1500 g for 10 min at 4C. The clarified supernatant was divided into four equal aliquots, which were shipped in an upright position at –80C to a central laboratory for biomarker assessment. Levels of biomarkers were assessed as follows:\n• α-2-macroglobulin: Meso Scale Diagnostics ELISA method .\n• Interleukin (IL) 6 and 1β, C-X-C motif chemokine ligand 8 (CXCL8) and tumour necrosis factor (TNF) α: Meso Scale Diagnostics Pro-inflammatory v-PLEX Plus kit.\n• Leukotriene B4: High pressure liquid chromatography with tandem mass spectroscopy (HPLC-MS/MS).\n• Myeloperoxidase (MPO): Meso Scale Diagnostics MPO v-PLEX kit.\n• Neutrophil elastase (NE): Luminex MAGPIX System Human Sepsis Magnetic Bead […]\n• Monocyte chemotactic protein (MCP) 1 (also known as C-C motif chemokine ligand [CCL] 2) and macrophage inflammatory protein (MIP) 1β (also known as CCL4):\nMeso Scale Diagnostics Chemokine v-PLEX Plus kit.\n• Matrix metalloproteinase (MMP) 9: Sandwich Immunoassay, using PheraSTAR Plate […]\n• Total protein: Pierce BCA protein assay.\nValidation procedures followed those outlined in the “Guideline on Bioanalytical Method […]"}}, "note": "Where two headings read alike, the source gives them in different places.", "data": [{"smiles": "CS(=O)(=O)Nc1ccc(C(=O)O[C@@H](Cc2c(Cl)c[n+]([O-])cc2Cl)c2ccc(OC(F)F)c(OCC3CC3)c2)cc1OCC1CC1", "note": "[CHF6001]", "values": [{"measurement": "Sputum concentration in relation to dose", "setting": "[1]; 2 h post-dose, steady state (after Day 20), 800 vs 1600 μg BID", "value": "dose-proportionality was observed"}, {"measurement": "Kp at 2 h", "setting": "[1]; both sexes, human, sputum relative to plasma, inhaled, 2 h post-dose, steady state", "value": "~2000"}, {"measurement": "concentration at 2 h", "setting": "[1]; both sexes, human, 800 μg BID inhaled", "value": 4900, "unit": "ng/mL"}, {"measurement": "concentration at 2 h", "setting": "[1]; both sexes, human, 1600 μg BID inhaled", "value": 10200, "unit": "ng/mL"}, {"measurement": "C-X-C motif chemokine ligand 8 in sputum, post-baseline", "setting": "[2]; 800 µg BID", "value": "1828.97 (140.2) pg/mL"}, {"measurement": "Interleukin 1β in sputum, post-baseline", "setting": "[2]; 800 µg BID", "value": "13.6127 (599.5) pg/mL"}, {"measurement": "Interleukin 6 in sputum, post-baseline", "setting": "[2]; 800 µg BID", "value": "48.7856 (108.7) pg/mL"}, {"measurement": "Leukotriene B4 in sputum, post-baseline", "setting": "[2]; 800 µg BID", "value": "872.363 (135.0) pg/mL"}, {"measurement": "Macrophage inflammatory protein 1β in sputum, post-baseline", "setting": "[2]; 800 µg BID", "value": "68.2963 (153.5) pg/mL"}, {"measurement": "Matrix metalloproteinase 9 in sputum, post-baseline", "setting": "[2]; 800 µg BID", "value": "175.9824 (292.9) ng/mL"}, {"measurement": "Monocyte chemotactic protein-1 in sputum, post-baseline", "setting": "[2]; 800 µg BID", "value": "136.8746 (89.9) pg/mL"}, {"measurement": "Myeloperoxidase in sputum, post-baseline", "setting": "[2]; 800 µg BID", "value": "476,409.369 (720.8) pg/mL"}, {"measurement": "Neutrophil elastase in sputum, post-baseline", "setting": "[2]; 800 µg BID", "value": "82,640.61 (281.5) pg/mL"}, {"measurement": "Total protein in sputum, post-baseline", "setting": "[2]; 800 µg BID", "value": "320.329 (100.5) µg/mL"}, {"measurement": "Tumour necrosis factor α in sputum, post-baseline", "setting": "[2]; 800 µg BID", "value": "1.595 (265.2) pg/mL"}, {"measurement": "α-2-macroglobulin in sputum, post-baseline", "setting": "[2]; 800 µg BID", "value": "247.464 (233.4) ng/mL"}, {"measurement": "C-X-C motif chemokine ligand 8 in sputum, post-baseline", "setting": "[2]; 1600 µg BID", "value": "2104.09 (127.3) pg/mL"}, {"measurement": "Interleukin 1β in sputum, post-baseline", "setting": "[2]; 1600 µg BID", "value": "13.2876 (377.1) pg/mL"}, {"measurement": "Interleukin 6 in sputum, post-baseline", "setting": "[2]; 1600 µg BID", "value": "55.8291 (107.5) pg/mL"}, {"measurement": "Leukotriene B4 in sputum, post-baseline", "setting": "[2]; 1600 µg BID", "value": "678.965 (274.2) pg/mL"}, {"measurement": "Macrophage inflammatory protein 1β in sputum, post-baseline", "setting": "[2]; 1600 µg BID", "value": "60.8680 (139.7) pg/mL"}, {"measurement": "Matrix metalloproteinase 9 in sputum, post-baseline", "setting": "[2]; 1600 µg BID", "value": "176.3384 (249.4) ng/mL"}, {"measurement": "Monocyte chemotactic protein-1 in sputum, post-baseline", "setting": "[2]; 1600 µg BID", "value": "152.5465 (108.2) pg/mL"}, {"measurement": "Myeloperoxidase in sputum, post-baseline", "setting": "[2]; 1600 µg BID", "value": "494,342.192 (536.6) pg/mL"}, {"measurement": "Neutrophil elastase in sputum, post-baseline", "setting": "[2]; 1600 µg BID", "value": "84,470.09 (238.7) pg/mL"}, {"measurement": "Total protein in sputum, post-baseline", "setting": "[2]; 1600 µg BID", "value": "327.176 (102.5) µg/mL"}, {"measurement": "Tumour necrosis factor α in sputum, post-baseline", "setting": "[2]; 1600 µg BID", "value": "1.687 (342.0) pg/mL"}, {"measurement": "α-2-macroglobulin in sputum, post-baseline", "setting": "[2]; 1600 µg BID", "value": "247.877 (270.6) ng/mL"}]}]}
